Target: T1, Pol theta (1-899) (Homo sapiens, UniProt O75417)
T1 construct: Pol theta (1-899) (5 nM) in assay buffer
Assay: Pol theta ATPase activity, NADH oxidation-coupled enzymatic assay (ATPase NADH coupling: Standard Screening: hPolQ)
Assay type: biochemical
Conditions: Pol theta (1-899) 5 nM, NADH oxidation-coupled ATPase assay; compounds of Table 3
Method in brief: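 Rates of ATP hydrolysis taken from 60-min A340 traces of NADH oxidation via PK/LDH coupling, then fit four-parameter for IC50, Hill slope and max inhibition. Enzyme (5 nM, 1-899) and compounds preincubated 15 min before ATP 100 μM and 50-thymine ssDNA 300 nM (stock, equal volume added).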

T1 sequence (O75417 1-899): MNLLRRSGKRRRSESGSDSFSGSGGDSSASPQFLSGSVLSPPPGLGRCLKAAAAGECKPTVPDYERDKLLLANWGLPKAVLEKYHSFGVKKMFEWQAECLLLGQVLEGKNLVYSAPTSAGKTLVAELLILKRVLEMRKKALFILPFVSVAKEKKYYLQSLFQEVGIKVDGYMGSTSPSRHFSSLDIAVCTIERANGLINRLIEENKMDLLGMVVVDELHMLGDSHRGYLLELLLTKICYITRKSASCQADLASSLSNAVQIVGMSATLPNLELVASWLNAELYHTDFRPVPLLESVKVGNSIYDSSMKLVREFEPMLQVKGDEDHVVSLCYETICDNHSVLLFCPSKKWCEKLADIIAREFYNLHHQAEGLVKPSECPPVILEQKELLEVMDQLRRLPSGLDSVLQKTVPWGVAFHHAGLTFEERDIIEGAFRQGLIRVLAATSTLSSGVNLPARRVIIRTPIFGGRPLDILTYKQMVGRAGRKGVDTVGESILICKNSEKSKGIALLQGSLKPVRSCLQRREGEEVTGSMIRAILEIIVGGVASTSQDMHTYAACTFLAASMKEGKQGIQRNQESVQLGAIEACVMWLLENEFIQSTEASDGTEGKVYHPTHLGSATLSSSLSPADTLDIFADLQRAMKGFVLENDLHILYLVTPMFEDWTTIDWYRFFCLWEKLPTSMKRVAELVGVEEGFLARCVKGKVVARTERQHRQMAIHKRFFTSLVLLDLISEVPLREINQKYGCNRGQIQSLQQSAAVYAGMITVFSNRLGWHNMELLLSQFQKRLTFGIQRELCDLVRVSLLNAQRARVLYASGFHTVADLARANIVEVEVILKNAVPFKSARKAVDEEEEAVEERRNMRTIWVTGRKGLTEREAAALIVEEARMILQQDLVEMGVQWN

| IC50 | Compound |
| --- | --- |
| 1 to 10 µM | COc1nnc(NC(=O)c2cnc(C)cc2-c2ccc(C(C)(C)C)cc2)s1 [Example 356, 4-(4-(tert-butyl)phenyl)-N-(5-methoxy-1,3,4-thiadiazol-2-yl)-6-methylnicotinamide] |
| 0.2 to 0.5 µM | CCc1cc(C(=O)Nc2nnc(OC)s2)c(-c2cc(Cl)ncc2OC)cn1 [Example 270, 2′-chloro-6-ethyl-5′-methoxy-N-(5-methoxy-1,3,4-thiadiazol-2-yl)-[3,4′-bipyridine]-4-carboxamide] |
| 1 to 10 µM | COc1nnc(NC(=O)c2cnc(C)cc2-c2ccccc2)s1 [Example 329, N-(5-methoxy-1,3,4-thiadiazol-2-yl)-6-methyl-4-phenylpyridine-3-carboxamide] |
| ≤ 0.2 µM | COc1nnc(NC(=O)c2cnc(C)cc2-c2cc(Br)c([S@@+](C)[O-])cc2OC)s1 (single isomer, unassigned) [Example 319] |
| 1 to 10 µM | COc1nnc(NC(=O)c2cnc(C)cc2-c2cnn(-c3ccccc3)c2)s1 [Example 460, N-(5-methoxy-1,3,4-thiadiazol-2-yl)-6-methyl-4-(1-phenyl-1H-pyrazol-4-yl)nicotinamide] |
| 1 to 10 µM | COc1nnc(NC(=O)c2cnc(C)cc2-c2ccc3ncncc3c2)s1 [Example 470, N-(5-methoxy-1,3,4-thiadiazol-2-yl)-6-methyl-4-(quinazolin-6-yl)pyridine-3-carboxamide] |
| 1 to 10 µM | COc1nnc(NC(=O)c2cnc(C)cc2-c2cscc2C#N)s1 [Example 442, 4-(4-cyanothiophen-3-yl)-N-(5-methoxy-1,3,4-thiadiazol-2-yl)-6-methylpyridine-3-carboxamide] |
| 1 to 10 µM | COc1nnc(NC(=O)c2cnc(C)cc2-c2cncc(C(=O)NC3CC3)c2)s1 [Example 403, N5-cyclopropyl-N3′-(5-methoxy-1,3,4-thiadiazol-2-yl)-6′-methyl-[3,4′-bipyridine]-3′,5-dicarboxamide] |
| 0.5 to 1 µM | COc1nnc(NC(=O)c2cnc(C)cc2-c2ccc(F)c(F)c2C)s1 [Example 475, 4-(3,4-difluoro-2-methylphenyl)-N-(5-methoxy-1,3,4-thiadiazol-2-yl)-6-methylpyridine-3-carboxamide] |
| ≤ 0.2 µM | COc1cnc(C)c(F)c1-c1cc(C)ncc1C(=O)Nc1nnc(O[C@H]2CC[C@H](CO)CC2)s1 [Example 314, 3′-fluoro-N-(5-(((1r,4r)-4-(hydroxymethyl)cyclohexyl)oxy)-1,3,4-thiadiazol-2-yl)-5′-methoxy-2′,6-dimethyl-[4,4′-bipyridine]-3-carboxamide] |
| ≤ 0.2 µM | COc1cnc(Br)cc1-c1cc(C)ncc1C(=O)Nc1nnc(O[C@@H]2CCC[C@@H](O)C2)s1 [Example 284, 2′-bromo-N-(5-(((1R,3R)-3-hydroxycyclohexyl)oxy)-1,3,4-thiadiazol-2-yl)-5′-methoxy-6-methyl-[4,4′-bipyridine]-3-carboxamide] |
| 1 to 10 µM | CNC(=O)c1ccc(-c2cc(C)ncc2C(=O)Nc2nnc(OC)s2)cn1 [Example 479, N3′-(5-methoxy-1,3,4-thiadiazol-2-yl)-N6,6′-dimethyl-[3,4′-bipyridine]-3′,6-dicarboxamide] |
| ≤ 0.2 µM | COc1cnc(C)c(F)c1-c1cc(C)ncc1C(=O)Nc1nnc(O[C@@H]2CCC[C@@H](O)C2)s1 (single isomer, unassigned) [Example 274] |

Same assay, conditions: Table 4; Pol theta (1-899) 5 nM, ATP, dT50 ssDNA

| IC50 | Compound |
| --- | --- |
| ≤ 0.2 µM | COc1cnc(Cl)cc1-c1cc(C)ncc1C(=O)Nc1nnc(O[C@H]2CC[C@@H](O)C2)s1 [Example 46, 2′-chloro-N-(5-(((1s,3r)-3-hydroxycyclopentyl)oxy)-1,3,4-thiadiazol-2-yl)-5′-methoxy-6-methyl-(4,4′-bipyridine)-3-carboxamide] |
| ≤ 0.2 µM | CCOc1nnc(NC(=O)c2cnc(C)cc2-c2cc(Cl)ncc2OC)s1 [Example 28, 2′-chloro-N-(5-ethoxy-1,3,4-thiadiazol-2-yl)-5′-methoxy-6-methyl-(4,4′-bipyridine)-3-carboxamide] |
| ≤ 0.2 µM | COc1cnc(Cl)cc1-c1cc(C)ncc1C(=O)Nc1nnc(O[C@H]2CC[C@H](O)CC2)s1 (single isomer, unassigned) [Example 27, 2′-chloro-N-(5-(((1r,4r)-4-hydroxycyclohexyl)oxy)-1,3,4-thiadiazol-2-yl)-5′-methoxy-6-methyl-[4,4′-bipyridine]-3-carboxamide] |
| 0.2 to 0.5 µM | COc1nnc(NC(=O)c2cnc(C)cc2-c2c(Cl)cccc2OC(F)F)s1 [Example 55, 4-(2-chloro-6-(difluoromethoxy)phenyl)-N-(5-methoxy-1,3,4-thiadiazol-2-yl)-6-methylnicotinamide] |
| 0.5 to 1 µM | COCCOc1nnc(NC(=O)c2ccncc2-c2ccccc2OC)s1 [Example 78] |

Same assay, conditions: Table 5; Pol theta (1-899) 5 nM, ATP, dT50 ssDNA

| IC50 | Compound |
| --- | --- |
| ≤ 0.2 µM | COc1cnc(Cl)c(F)c1-c1cc(C)ncc1C(=O)Nc1nnc(O[C@H]2CC[C@H](O)C2)s1 (single isomer, unassigned) [Example 197] |
| ≤ 0.2 µM | COc1nnc(NC(=O)c2cnc(C)cc2-c2cc(Cl)c([S+](C)[O-])cc2OC)s1 (stereo not shown) [Example 231, 4-(5-chloro-2-methoxy-4-(methylsulfinyl)phenyl)-N-(5-methoxy-1,3,4-thiadiazol-2-yl)-6-methylnicotinamide] |
| ≤ 0.2 µM | COc1cnc(Cl)cc1-c1cc(C)ncc1C(=O)Nc1nnc(O[C@H]2COC3(CCCC3)C2)s1 (single isomer, unassigned) [Example 230] |
| ≤ 0.2 µM | COCc1cc(-c2cc(Cl)ncc2OC)c(C(=O)Nc2nnc(OC)s2)cn1 [Example 158, 2′-chloro-5′-methoxy-N-(5-methoxy-1,3,4-thiadiazol-2-yl)-6-(methoxymethyl)-(4,4′-bipyridine)-3-carboxamide] |
| ≤ 0.2 µM | COc1cnc(Cl)cc1-c1cc(C)ncc1C(=O)Nc1nnc(O[C@H]2CC[C@]3(CCO3)CC2)s1 (single isomer, unassigned) [Example 185, N-(5-(((4s, 7s)-1-oxaspiro(3.5)nonan-7-yl)oxy)-1,3,4-thiadiazol-2-yl)-2′-chloro-5′-methoxy-6-methyl-(4,4′-bipyridine)-3-carboxamide] |
| ≤ 0.2 µM | COc1cnc(Cl)cc1-c1cc(C)ncc1C(=O)Nc1nnc(OC2CC3(COC3)C2)s1 [Example 135, N-(5-((2-oxaspiro (3.3)heptan-6-yl)oxy)-1,3,4-thiadiazol-2-yl)-2′-chloro-5′-methoxy-6-methyl-(4,4′-bipyridine)-3-carboxamide] |
| 1 to 10 µM | COc1nnc(NC(=O)c2cnc(C)cc2-c2cnn3c2OCC3)s1 [Example 126, 4-(2,3-dihydropyrazolo(5,1-b)oxazol-7-yl)-N-(5-methoxy-1,3,4-thiadiazol-2-yl)-6-methylnicotinamide] |

| Compound | IC50 |
| --- | --- |
| COc1cnc(Cl)cc1-c1cc(C)ncc1C(=O)Nc1nnc(O[C@H]2C[C@H](OC)C2)s1 (single isomer, unassigned) [Example 133, 2′-chloro-5′-methoxy-N-(5-((1r,3r)-3-methoxycyclobutoxy)-1,3,4-thiadiazol-2-yl)-6-methyl-(4,4′-bipyridine)-3-carboxamide] | ≤ 0.2 µM |

Same assay, conditions: Table 5; values given as bound; Pol theta (1-899) 5 nM, ATP, dT50 ssDNA

| IC50 | Compound |
| --- | --- |
| > 10 µM | COc1nnc(NC(=O)c2cn3c(C)cnc3cc2-c2c(F)cccc2OC)s1 [Example 120, 7-(2-fluoro-6-methoxyphenyl)-N-(5-methoxy-1,3,4-thiadiazol-2-yl)-3-methylimidazo(1,2-a)pyridine-6-carboxamide] |
| > 10 µM | COc1nnc(NC(=O)c2nn(C)cc2-c2cc(Cl)ncc2OC)s1 [Example 107, 4-(2-chloro-5-methoxypyridin-4-yl)-N-(5-methoxy-1,3,4-thiadiazol-2-yl)-1-methyl-1H-pyrazole-3-carboxamide] |
